Values quoted from earlier work, collected in patent US8383645B2 (Teva Pharmaceutical Industries, Ltd., priority 2006, dated 2013).

Test system: acute experimental autoimmune encephalomyelitis (aEAE) model
Conditions: U.S. Pat. No. 6,077,851

Structure (SMILES): CCN(C(=O)c1c(O)c2c(Cl)cccc2n(C)c1=O)c1ccccc1 [Laquinimod, N-ethyl-N-phenyl-1,2-dihydro-4-hydroxy-5-chloro-1-methyl-2-oxoquinoline-3-carboxamide]
- effectiveness in the aEAE model: effective
